Several values for one entry are separate records, joined by “and”; a condition that tells them apart may be missing. Identical values can stand only once.
What was measured:
GLUT5A396W = target: T1, GLUT5A396W (Homo sapiens, UniProt P22732, A396W); assay: entrance counter-flow transport assay, fructose transport by GLUT5A396W proteoliposomes; assay type: biochemical
T1 construct: Full length DNA was subcloned into pFastBac1 (Life Technologies) vector with a N-terminal hexahistidine tag; hexahistidine (thrombin-cleavable) (N, cleaved yes); made in house; host or cells: Sf21 insect cells (baculovirus, pFastBac1)
T1 sequence (P22732 1-501 A396W): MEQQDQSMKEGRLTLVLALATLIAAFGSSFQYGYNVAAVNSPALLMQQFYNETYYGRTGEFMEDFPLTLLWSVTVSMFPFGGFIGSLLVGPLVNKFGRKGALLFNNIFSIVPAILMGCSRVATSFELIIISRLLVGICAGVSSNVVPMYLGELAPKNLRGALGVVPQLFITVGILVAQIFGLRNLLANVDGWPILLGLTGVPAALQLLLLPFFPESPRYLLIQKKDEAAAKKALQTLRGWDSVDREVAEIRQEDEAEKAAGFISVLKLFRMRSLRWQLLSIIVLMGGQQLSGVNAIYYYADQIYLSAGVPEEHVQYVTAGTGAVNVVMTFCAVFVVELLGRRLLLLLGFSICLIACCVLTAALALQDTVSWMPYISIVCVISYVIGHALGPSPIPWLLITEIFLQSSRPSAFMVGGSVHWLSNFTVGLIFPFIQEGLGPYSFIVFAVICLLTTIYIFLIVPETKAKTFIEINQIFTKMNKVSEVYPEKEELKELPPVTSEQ
Experimental: We expressed and purified GLUT1W388A and GLUT5A396W. Purified mutant proteins were reconstituted into proteoliposomes and activity was determined by entrance counter-flow transport assay.
cDNAs of GLUT1 and GLUT5 were purchased from Open Biosystems (GE Healthcare). Full length DNA was subcloned into pFastBac1 (Life Technologies) vector with a N-terminal hexahistidine tag. Bacmids were generated in DH10Bac E. coli cells (Life Technologies). Baculoviruses were produced using Cellfectin II Reagent and amplified in Sf21 insect cells (Life Technologies). Cells were maintained at 26 °C, and P1 (10^6 pfu/mL) was collected from infected cells after 72 hours. Sf21 cells were propagated in HyClone SFX-Insect media (GE Healthcare), supplemented with 5% fetal bovine serum (Biowest), antibiotics (100 units/mL Penicillin G and 100 μg/mL streptomycin sulfate) and amphotericin B (2.5 μg/mL). For recombinant protein expression, Sf21 cells in suspension culture at 2 × 10^6 cells/ml were infected with P3 viral stock (10^8 pfu/mL), at an MOI of 1.0 pfu/cell. Four days after viral infection, cells from 2 L culture were collected by centrifugation at 2,000 × g and 25 °C. […]

human GLUT1 = target: T2, human GLUT1 (Homo sapiens, UniProt P11166); assay: entrance counter-flow transport assay, GLUT1-mediated glucose transport in proteoliposomes; assay type: biochemical
T2 construct: Full length DNA was subcloned into pFastBac1 (Life Technologies) vector with a N-terminal hexahistidine tag; hexahistidine (thrombin-cleavable) (N, cleaved yes); made in house; host or cells: Sf21 insect cells (baculovirus, pFastBac1)
T2 sequence (P11166 1-492): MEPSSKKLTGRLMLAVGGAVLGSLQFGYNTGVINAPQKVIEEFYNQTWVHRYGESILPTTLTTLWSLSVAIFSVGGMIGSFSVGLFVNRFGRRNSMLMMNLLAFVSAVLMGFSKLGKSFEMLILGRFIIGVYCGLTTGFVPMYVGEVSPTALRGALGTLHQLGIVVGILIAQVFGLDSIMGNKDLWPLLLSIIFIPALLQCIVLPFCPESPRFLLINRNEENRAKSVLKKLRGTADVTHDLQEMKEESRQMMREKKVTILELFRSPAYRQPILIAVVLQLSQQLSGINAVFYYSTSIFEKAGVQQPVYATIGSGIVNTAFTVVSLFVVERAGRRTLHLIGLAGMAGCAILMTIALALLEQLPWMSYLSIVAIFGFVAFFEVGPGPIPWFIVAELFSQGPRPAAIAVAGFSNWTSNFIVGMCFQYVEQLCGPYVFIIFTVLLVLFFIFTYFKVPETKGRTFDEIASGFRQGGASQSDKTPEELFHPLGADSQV
Experimental: Human GLUT1 and GLUT5 were expressed recombinantly in insect cell culture. The purified proteins were reconstituted into proteoliposomes. To measure the inhibition of GLUT1 or GLUT5 transport activity we used entrance counter-flow transport assay. In GLUT1 and GLUT5 proteoliposomes, substrate transport reached steady state after one minute incubation at room temperature.
Proteoliposomes were generated according to the protocol from[30] with minor modifications. Liposomes were produced from a 95/5% (w/w) mix of soy phosphatidylcholine and cholesterol (Avanti Polar Lipids). Briefly, hexane-washed and vacuum-dried lipids were resuspended to 20 mg/ml in 100 mM KPi (pH 7.5), and then subjected to 11 freeze-and-thaw cycles in liquid nitrogen and room temperature water. The lipid mixture was extruded through a 0.1 μm polycarbonate filter. Prepared liposomes were destabilized with 4 mM Triton X-100 and mixed with purified protein in a 100:1 (w/w) ratio in 100 mM KPi (pH 7.5) 20% (v/v) glycerol, 200 mM (glucose or fructose). Detergent was removed by several additions of SM2 BioBeads (BioRad) and incubated overnight at 4 °C. After filtering out the BioBeads, proteoliposomes were diluted with 100 mM KPi (pH 7.5) 200 mM (glucose or fructose), and then collected by ultracentrifugation, at 200,000 × g and 4 °C, for 1 hour. The proteoliposomes pellet was resuspended in the above buffer so that O.D.600nm was ~30.
To measure hexose transport, we utilized entrance counter-flow assay. Transport was performed in a volume of 100 μL of 100 mM KPi (pH 7.5) buffer containing radioactive ^14C-hexose (4 μM fructose or 5 μM glucose) with inhibitors added before initiation of transport. Radioactive substrate uptake in GLUT1 and GLUT5 (wild-type or mutant) proteoliposomes was constant between 1 and 2 mins. The reaction was started by the addition of 3 μL concentrated proteoliposomes to the above solution and incubated at room temperature; the transport was stopped after one minute by addition of ice-chilled quench buffer [100 mM KPi (pH 5.5) and 100 mM LiCl]. The solution was filtered through a 0.4 μm pore size cellulose nitrate membrane filter (Whatman), and the filter was washed three times with quench buffer. The membrane filter was placed into a vial filled with BioSafe II scintillation liquid (Research Products International Corp.), and radioactivity was quantified with LS 6500 scintillation counter (Beckman). […] The transport assays were unaffected by 5% DMSO. Data is presented as relative activity normalized to radioactivity of no inhibitor added as 100% and empty proteoliposomes as 0%. Kinetic parameters were fitted by nonlinear algorithm plots using Prism (GraphPad Software).

With `C=C1C[C@@]23CC[C@H]4[C@@](C)(CCC[C@@]4(C)C(=O)O[C@@H]4O[C@H](CO)[C@@H](O)[C@H](O)[C@H]4O)[C@@H]2CC[C@]1(O[C@@H]1O[C@H](CO)[C@@H](O)[C@H](O)[C@H]1O)C3` [Rub, Rubusoside] the IC50 (GLUT5A396W) was 10.3 mM and 10 mM, the “inhibition of GLUT1 glucose transport activity” value (human GLUT1; 20 mM) was “reducing activity to background levels” and the IC50 (human GLUT1; entrance counter-flow) was 4.6 mM and ~5 mM.

Reference: article PMC4549712, “Inhibition of human GLUT1 and GLUT5 by plant carbohydrate products; insights into transport specificity” (Scientific Reports, 2015)
